{"source": "patent US20240408170A1", "about": "“COMPOSITION FOR DECOMPOSITION OF TRYPSIN OR TMPRSS2” (Riken, priority 2021, published 2024)", "key": {"[1]": {"molecular_target": "T1, recombinant mouse PRSS2 (Mus musculus, UniProt P07146)", "T1 construct": "purchased Sino Biological, Inc. 50383-M08H", "T1 sequence (P07146 24-246)": "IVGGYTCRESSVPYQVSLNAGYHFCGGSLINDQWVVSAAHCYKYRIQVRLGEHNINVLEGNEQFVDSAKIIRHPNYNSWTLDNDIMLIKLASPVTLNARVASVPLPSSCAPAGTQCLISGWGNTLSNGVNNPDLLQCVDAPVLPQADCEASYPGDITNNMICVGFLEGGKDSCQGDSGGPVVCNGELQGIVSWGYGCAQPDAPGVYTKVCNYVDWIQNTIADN", "experiment": "Trypsin decomposition in vitro by bacteria (western blot)", "type": "biochemical", "conditions": "bacteria or culture supernatant incubated with recombinant mouse trypsin", "method": "Mouse faecal samples were suspended and diluted 50-fold with phosphate buffered saline (PBS) to which a protease inhibitor cocktail (Roche) was added. Subsequently, the suspended sample was centrifuged at 15,000×g for 10 minutes at 4° C., and the supernatant was subjected to western blot. Mouse pancreatic tissue was rapidly frozen in liquid nitrogen. Proteins were extracted by TRIzol Reagent (Thermo Fisher Scientific K.K.), and the final protein concentration was adjusted to 4 μg/μL. For SDS-PAGE and blotting, Novex (registered trademark) NuPAGE (registered trademark) SDS-PAGE Gel system (Thermo Fisher Scientific K.K.) and iBlot™ 2 Dry Blotting System (Thermo Fisher Scientific K.K.) were used according to the manufacturer's instructions.\nThe bacteria cultured overnight were incubated with recombinant mouse trypsin (final concentration: 1 μg/mL) for 1 hour or with human trypsin (final concentration: 20 μg/mL) for 4 hours. Recombinant trypsin isoforms used were as follows: recombinant mouse PRSS2 (50383-M08H, Sino Biological, Inc.), recombinant human PRSS1 (LS-G135640), recombinant human PRSS2 (LS-G20167), and recombinant human PRSS3 (His-tag) (NBP2-52220).\nIn some experiments, recombinant mouse PRSS2 was first treated with one of the following trypsin inhibitors for 30 minutes before incubation with a P. clara culture solution. AEBSF (Sigma-Aldrich, final concentration: 2 mM), Leupeptin (Sigma-Aldrich, final concentration: 100 μM), and TLCK (Abcam plc., final concentration: 100 μM).\nIn some experiments, P. clara was cultured overnight in the presence of Tunicamycin (Sigma-Aldrich, final concentration: 10 μg/mL), 2-Fluoro-L-fucose (Cayman Chemical Company, final concentration: 250 μM), or the corresponding DMSO control, before incubation with recombinant mouse PRSS2.\nIn the experiment of evaluating the effect of Ca^2+, P. clara was cultured in a low Ca^2+ mGAM medium supplemented with or without 1 mM of Ca^2+, before incubation with recombinant mouse PRSS2. In the experiment in which the supernatant of P. clara was used, P. clara cultured overnight was filtered through a sterilization filter unit formed using a PVDF film having a pore size of 0.22 μm."}, "[2]": {"test_system": "Citrobacter rodentium", "experiment": "Vaccine administration experiment (peracetic acid-inactivated C. rodentium) followed by C. rodentium infection", "type": "in vivo, mouse", "conditions": "with 2-mix", "method": "For a colony-forming unit (CFU) assay, cecal patches or cecal luminal contents were collected, and after homogenization with PBS, serially diluted homogenates were plated on LB agar plates. CFU was counted after overnight culture at 37° C. under aerobic conditions.\nFor the ex vivo evaluation of C. rodentium-specific IgA, the cecal contents were resuspended in a 5× (w/v) LB medium and centrifuged. The supernatant was filtered through a sterilization filter unit with a PVDF film having a pore size of 0.22 μm, and then mixed with an equal amount of a C. rodentium culture solution cultured overnight in vitro. This mixture was gently shaken at room temperature and incubated for 1 hour to examine the aggregation effect with a confocal microscope (Leica TCS SP8). Alternatively, after the incubation, the mixture was centrifuged and washed once with PBS. Thereafter, the bacterial cell pellet was dissolved in a 1% SDS solution (diluted with a 50 mM Tris-HCl buffer solution to which 5 mM EDTA was added). The lysate was stained by western blot with a goat anti-mouse IgA a chain antibody (HRP) (ab97235) to evaluate the relative amount of C. rodentium-binding (C. rodentium-specific) IgA in the faecal contents.\nFor a vaccine administration experiment, 200 μL of 2-mix (B. uniformis and P. merdae)+P. clara (WT), or 2-mix+P. clara (Δ00502) was preliminarily administered to GF mice. After 4 days, C. rodentium (10^10 cells/mouse) inactivated with peracetic acid was orally administered to the mice once a week for 3 weeks. After 3 weeks of immunization, the mice were infected with C. rodentium (150 μL/mouse) cultured overnight by oral administration, and euthanized on day 14.\nThe C. rodentium inactivated by peracetic acid was produced as follows. C. rodentium cultured overnight was recovered by centrifugation (16,000×g, 10 minutes) and resuspended in sterilized PBS at a density of 10^10 cells per 1 mL. Peracetic acid (240990, Sigma-Aldrich) was added such that a final concentration was 0.4%, and incubation was performed at room temperature for 1 hour. […]"}, "[3]": {"test_system": "mouse hepatitis virus (MHV)", "experiment": "Mouse hepatitis virus (MHV) infection of gnotobiotic mice", "type": "in vivo", "conditions": "with 2-mix", "method": "MHV-2 was provided by Makoto UJIKE (Nippon Veterinary and Life Science University). Five-week-old GF C57BL/6N male mice were obtained from CLEA Japan, Inc. or Sankyo Labo Service Corporation, and were separately bred in stainless steel isolators. 200 μL of 2-mix (B. uniformis and P. merdae)+P. clara (WT) or 2-mix+P. clara (Δ00502) was orally administered to the GF mice. Two weeks after inoculation, the mice were orally infected with 4.5×10^6 PFU of MHV-2, and the survival rate was observed every day for 10 days.\nThe liver and brain were collected on 4 or 5 days after infection to measure virus titers, and homogenization was performed with DNA/RNA Shield (Zymo Research Corporation). Viral RNA was extracted using a Quick-RNA Viral Kit (Zymo Research Corporation) according to the manufacturer's instructions, and cDNA was synthesized using ReverTra Ace (TOYOBO CO., LTD.) and a random primer (TOYOBO CO., LTD.).\nQuantitative real-time PCR was performed with LightCycler 480 System (Roche) using THUNDERBIRD SYBR qPCR Mix (TOYOBO CO., LTD.) to amplify an orf1a gene. The relative amount of MHV was obtained from a standard curve created from a serial diluent solution of MHV genomic cDNA. The base sequences of the primers used are as follows."}}}
{"substance": "Paraprevotella clara [JCM 14859]", "values": [{"measurement": "decomposition of rmPRSS2 (western blot)", "setting": "[1]", "result": "effect of reducing trypsin"}, {"measurement": "body weight after infection with C. rodentium", "setting": "[2]; orally vaccinated mice", "result": "body weight loss was reduced"}, {"measurement": "C. rodentium-specific IgA in cecal luminal contents", "setting": "[2]; western blot", "result": "significantly high amount of C. rodentium-specific IgA"}, {"measurement": "total IgA in cecal luminal contents", "setting": "[2]; western blot", "result": "significantly high total IgA amount"}, {"measurement": "liver pathology (hematoxylin and eosin)", "setting": "[3]", "result": "protected from the necrotizing liver pathology"}, {"measurement": "viral titers of MHV in liver and brain", "setting": "[3]", "result": "significantly prevented the spread of the virus"}, {"measurement": "survival after MHV infection", "setting": "[3]; oral MHV 14 days after inoculation", "result": "prolonged survival"}]}
